Data published in ChEMBL document CHEMBL3272241, “Synthesis and antiprotozoal activity of 2,5-bis(4-guanylphenyl)thiophenes and -pyrroles” (J Med Chem, 1977).
Activity calls are given as the source filed them. No cut-off for these calls is given here.

Experiments:
[1] = test system: Trypanosoma brucei rhodesiense; assay: Antitrypanosomal activity against Trypanosoma rhodesiense infected in mouse assessed as increase in survival time by 30 days at 5 mg/kg relative to control; assay type: functional
[2] = test system: Trypanosoma brucei rhodesiense; assay: Antitrypanosomal activity against Trypanosoma rhodesiense infected in mouse assessed as increase in survival time by 30 days at 2.5 mg/kg relative to control; assay type: functional
[3] = test system: Trypanosoma brucei rhodesiense; assay: Antitrypanosomal activity against Trypanosoma rhodesiense infected in mouse assessed as increase in survival time by 30 days at 10 mg/kg relative to control; assay type: functional
[4] = test system: Trypanosoma brucei rhodesiense; assay: Antitrypanosomal activity against Trypanosoma rhodesiense infected in mouse assessed as increase in survival time by 30 days at 160 mg/kg relative to control; assay type: functional
[5] = test system: Trypanosoma brucei rhodesiense; assay: Antitrypanosomal activity against Trypanosoma rhodesiense infected in mouse assessed as increase in survival time by 30 days at 80 mg/kg relative to control; assay type: functional
[6] = test system: Trypanosoma brucei rhodesiense; assay: Antitrypanosomal activity against Trypanosoma rhodesiense infected in mouse assessed as increase in survival time by 30 days at 20 mg/kg relative to control; assay type: functional
[7] = test system: Trypanosoma brucei rhodesiense; assay: Antitrypanosomal activity against Trypanosoma rhodesiense infected in mouse assessed as increase in survival time by 30 days at 40 mg/kg relative to control; assay type: functional
[8] = test system: Plasmodium berghei; assay: Antimalarial activity against Plasmodium berghei infected in mouse; assay type: functional, organism-based
[9] = test system: Trypanosoma brucei rhodesiense; assay: Antitrypanosomal activity against Trypanosoma rhodesiense infected in mouse assessed as increase in survival time by 30 days at 320 mg/kg relative to control; assay type: functional
[10] = test system: Trypanosoma brucei rhodesiense; assay: Antitrypanosomal activity against Trypanosoma rhodesiense infected in mouse assessed as increase in survival time by 30 days at 640 mg/kg relative to control; assay type: functional
[11] = test system: Trypanosoma brucei rhodesiense; assay: Antitrypanosomal activity against Trypanosoma rhodesiense infected in mouse assessed as increase in mean survival time at 160 mg/kg relative to control; assay type: functional
[12] = test system: Mus musculus; assay: Acute toxicity in mouse infected with Trypanosoma rhodesiense assessed as death at 320 mg/kg; assay type: organism-based; set-up: dose 320 mg/kg; conditions: in vivo
[13] = test system: Mus musculus; assay: Acute toxicity in mouse infected with Trypanosoma rhodesiense assessed as death at 640 mg/kg; assay type: organism-based; set-up: dose 640 mg/kg; conditions: in vivo
[14] = test system: Trypanosoma brucei rhodesiense; assay: Antitrypanosomal activity against Trypanosoma rhodesiense infected in mouse assessed as increase in mean survival time at 20 mg/kg relative to control; assay type: functional
[15] = test system: Trypanosoma brucei rhodesiense; assay: Antitrypanosomal activity against Trypanosoma rhodesiense infected in mouse assessed as increase in mean survival time at 40 mg/kg relative to control; assay type: functional
[16] = test system: Trypanosoma brucei rhodesiense; assay: Antitrypanosomal activity against Trypanosoma rhodesiense infected in mouse assessed as increase in mean survival time at 80 mg/kg relative to control; assay type: functional

Structure (SMILES) | MST [1] | MST [2] | MST [3] | MST [4] | MST [5] | MST [6] | MST [7] | Activity [8] | MST [9] | MST [10] | MST [11] | Activity [12] | Activity [13] | MST [14] | MST [15] | MST [16]
Cl.Cl.N=C(N)c1ccc(-c2ccc(-c3ccc(C(=N)N)cc3)s2)cc1 | 4 days | 3 days | 5 days | 5 days | 5 days | 5 days | 5 days | inactive | – | – | – | – | – | – | – | –
Cn1c(-c2ccc([C+](N)N)cc2)ccc1-c1ccc([C+](N)N)cc1.[Cl-].[Cl-] | 4 days | 2 days | 5 days | 5 days | 5 days | 5 days | 5 days | inactive | 5 days | – | – | – | – | – | – | –
Cn1c(-c2ccc([C+]3NCCN3)cc2)ccc1-c1ccc([C+]2NCCN2)cc1.[Cl-].[Cl-] | – | – | 2 days | 5 days | 4 days | 3 days | 4 days | inactive | – | – | – | – | – | – | – | –
CC1CN[C+](c2ccc(-c3ccc(-c4ccc([C+]5NCC(C)N5)cc4)n3C)cc2)N1.[Cl-].[Cl-] (stereo not drawn) | – | – | – | 5 days | 5 days | 3 days | 4 days | inactive | 5 days | 5 days | – | – | – | – | – | –
[Cl-].[Cl-].c1cc([C+]2NCCCN2)ccc1-c1ccc(-c2ccc([C+]3NCCCN3)cc2)s1 | – | – | 2 days | 4 days | 4 days | 3 days | 4 days | inactive | 5 days | 5 days | – | – | – | – | – | –
N=C(N)c1ccc(/C=C/c2ccc(C(=N)N)cc2O)cc1 [HYDROXYSTILBAMIDINE] | 5 days | 5 days | 5 days | 5 days | 5 days | 5 days | 5 days | – | 5 days | 5 days | – | – | – | – | – | –
[Cl-].[Cl-].c1cc([C+]2NCCN2)ccc1-c1ccc(-c2ccc([C+]3NCCN3)cc2)s1 | – | – | – | – | – | – | – | inactive | 2 days | 3 days | 1.6 days | – | – | – | – | –
N=C(N)c1ccc(OCCCCCOc2ccc(C(=N)N)cc2)cc1 [PENTAMIDINE] | 5 days | 4 days | 5 days | 5 days | 5 days | 5 days | 5 days | – | 5 days | 5 days | – | – | – | – | – | –
N=C(N)c1ccc(-c2ccc(-c3ccc(C(=N)N)cc3)o2)cc1 [FURAMIDINE] | 5 days | 4 days | 5 days | 5 days | 5 days | 5 days | 5 days | – | 5 days | 5 days | – | – | – | – | – | –
Cn1c(-c2ccc([C+]3NCCCN3)cc2)ccc1-c1ccc([C+]2NCCCN2)cc1.[Cl-].[Cl-] | – | – | 2 days | 3 days | 5 days | 3 days | 5 days | inactive | – | – | – | Toxic | Toxic | – | – | –
N=C(N)c1ccc(/C=C/c2ccc(C(=N)N)cc2)cc1 [STILBAMIDINE] | 5 days | 5 days | 5 days | 5 days | 5 days | 5 days | 5 days | – | 5 days | 5 days | – | – | – | – | – | –
CC1CN[C+](c2ccc(-c3ccc(-c4ccc([C+]5NCC(C)N5)cc4)s3)cc2)N1.[Cl-].[Cl-] (stereo not drawn) | – | – | – | 2 days | – | – | – | inactive | 4 days | 4 days | – | – | – | 1 days | 1.2 days | 3 days
